# According to ChEMBL document CHEMBL3596152, “Synthesis of 1-O-acetylbritannilactone analogues from Inula britannica and in vitro evaluation of their anticancer potential” (Medchemcomm, 2014):
# Activity calls are given as the source filed them. The rule behind the calls is not given here.
# Legend:
# [1] = Cytotoxicity against human SGC7901 cells assessed as reduction in cell viability incubated for 72 hrs by SRB assay; format: functional, cell-based; conditions: SGC-7901, 72 h
# HCT-116 = experiment: Cytotoxicity against human HCT116 cells assessed as reduction in cell viability incubated for 72 hrs by SRB assay; format: functional, cell-based; conditions: HCT-116, 72 h
# HeLa [2] = experiment: Cytotoxicity against human HeLa cells assessed as reduction in cell viability incubated for 72 hrs by SRB assay; format: functional, cell-based
# HeLa [3] = experiment: Induction of apoptosis in human HeLa cells assessed as early apoptotic cells levels at 10 uM incubated for 72 hrs by annexin V-FITC and propidium iodide staining based flow cytometry (reference value: 1.4%); format: functional
# HeLa [4] = experiment: Induction of apoptosis in human HeLa cells assessed as late apoptotic cells levels at 10 uM incubated for 72 hrs by annexin V-FITC and propidium iodide staining based flow cytometry (reference value: 2.8%); format: functional
# HeLa [5] = experiment: Induction of apoptosis in human HeLa cells assessed as necrotic cells levels at 10 uM incubated for 72 hrs by annexin V-FITC and propidium iodide staining based flow cytometry (reference value: 0.2%); format: functional
# [6] = Thiol reactivity in DMSO-d6 solution assessed as formation of 1-O-acetyl-6-O-benzoyl-13-(2-hydroxyethylthiol) britannilactone at 0.05 mmol in presence of beta-mercaptoethanol by 1H NMR Michael acceptor assay
# [7] = Thiol reactivity in DMSO-d6 solution at 0.05 mmol in presence of beta-mercaptoethanol by 1H NMR Michael acceptor assay
# [8] = Thiol reactivity in DMSO-d6 solution assessed as formation of 1,6-O,O-diacetyl-13-(2-hydroxyethylthiol) britannilactone at 0.05 mmol in presence of beta-mercaptoethanol by 1H NMR Michael acceptor assay
# HeLa [9] = experiment: Induction of apoptosis in human HeLa cells assessed as increase in cleaved caspase-3 levels at 3 uM incubated for 48 hrs by Western blotting method; format: functional, cell-based
# HeLa [10] = experiment: Induction of cell cycle arrest in human HeLa cells assessed as accumulation at G0/G1 phase at 20 uM incubated for 24 hrs by propidium iodide staining based flow cytometry (reference value: 31.1%); format: functional
# HeLa [11] = experiment: Induction of apoptosis in human HeLa cells assessed as late apoptotic cells levels at 6 uM incubated for 72 hrs by annexin V-FITC and propidium iodide staining based flow cytometry (reference value: 2.8%); format: functional
# HeLa [12] = experiment: Induction of apoptosis in human HeLa cells assessed as increase in cleaved caspase-3 levels at 3 to 12 uM incubated for 48 hrs by Western blotting method; format: functional, cell-based
# HeLa [13] = experiment: Cytotoxicity against human HeLa cells assessed as reduction in cell viability at 1.57 to 12.5 uM incubated for 72 hrs by SRB assay; format: functional, cell-based
# HeLa [14] = experiment: Induction of cell cycle arrest in human HeLa cells assessed as accumulation at G2/M pahse at 10 uM incubated for 24 hrs by propidium iodide staining based flow cytometry (reference value: 28.4%); format: functional
# HeLa [15] = experiment: Induction of apoptosis in human HeLa cells assessed as late apoptotic cells levels at 3 uM incubated for 72 hrs by annexin V-FITC and propidium iodide staining based flow cytometry (reference value: 2.8%); format: functional
# HeLa [16] = experiment: Induction of apoptosis in human HeLa cells assessed as necrotic cells levels at 3 uM incubated for 72 hrs by annexin V-FITC and propidium iodide staining based flow cytometry (reference value: 0.2%); format: functional
# HeLa [17] = experiment: Induction of cell cycle arrest in human HeLa cells assessed as accumulation at G2/M pahse at 20 uM incubated for 24 hrs by propidium iodide staining based flow cytometry (reference value: 28.4%); format: functional
# HeLa [18] = experiment: Induction of cell cycle arrest in human HeLa cells assessed as accumulation at S pahse at 10 uM incubated for 24 hrs by propidium iodide staining based flow cytometry (reference value: 40.5%); format: functional
# HeLa [19] = experiment: Cytotoxicity against human HeLa cells assessed as reduction in cell viability at 1.57 to 12.5 uM in presence of 1 mM NAC incubated for 72 hrs by SRB assay; format: functional, cell-based
# HeLa [20] = experiment: Induction of cell cycle arrest in human HeLa cells assessed as accumulation at G0/G1 phase at 10 uM incubated for 24 hrs by propidium iodide staining based flow cytometry (reference value: 31.1%); format: functional
# HeLa [21] = experiment: Induction of apoptosis in human HeLa cells assessed as early apoptotic cells levels at 6 uM incubated for 72 hrs by annexin V-FITC and propidium iodide staining based flow cytometry (reference value: 1.4%); format: functional
# HeLa [22] = experiment: Induction of apoptosis in human HeLa cells assessed as necrotic cells levels at 6 uM incubated for 72 hrs by annexin V-FITC and propidium iodide staining based flow cytometry (reference value: 0.2%); format: functional
# HeLa [23] = experiment: Induction of cell cycle arrest in human HeLa cells assessed as accumulation at S pahse at 5 uM incubated for 24 hrs by propidium iodide staining based flow cytometry (reference value: 40.5%); format: functional
# HeLa [24] = experiment: Induction of cell cycle arrest in human HeLa cells assessed as accumulation at G0/G1 phase at 5 uM incubated for 24 hrs by propidium iodide staining based flow cytometry (reference value: 31.1%); format: functional
# HeLa [25] = experiment: Induction of cell cycle arrest in human HeLa cells assessed as accumulation at S pahse at 20 uM incubated for 24 hrs by propidium iodide staining based flow cytometry (reference value: 40.5%); format: functional
# HeLa [26] = experiment: Induction of apoptosis in human HeLa cells assessed as early apoptotic cells levels at 3 uM incubated for 72 hrs by annexin V-FITC and propidium iodide staining based flow cytometry (reference value: 1.4%); format: functional
# HeLa [27] = experiment: Induction of cell cycle arrest in human HeLa cells assessed as accumulation at G2/M pahse at 5 uM incubated for 24 hrs by propidium iodide staining based flow cytometry (reference value: 28.4%); format: functional
smiles,measurement,setting,value
C=C1C(=O)O[C@@H]2CC(C)=C([C@@H](C)CCCOC(C)=O)[C@@H](OC(=O)COc3cccc(C(C)=O)c3)[C@H]12,IC50,[1],46.1 µM
same,IC50,HCT-116,45.5 µM
same,IC50,HeLa [2],38.6 µM
C=C1C(=O)O[C@@H]2CC(C)=C([C@@H](C)CCCOC(C)=O)[C@@H](OC(=O)COc3ccc4c(C(F)(F)F)noc4c3)[C@H]12,IC50,[1],19.7 µM
same,IC50,HCT-116,21.5 µM
same,IC50,HeLa [2],19.2 µM
C=C1C(=O)O[C@@H]2CC(C)=C([C@@H](C)CCCOC(C)=O)[C@@H](OC(=O)CN3CCCC3)[C@H]12,IC50,[1],18.4 µM
same,IC50,HCT-116,20.5 µM
same,IC50,HeLa [2],12.7 µM
C=C1C(=O)O[C@@H]2CC(C)=C([C@@H](C)CCCOC(C)=O)[C@@H](OC(=O)c3ccc(C)cc3)[C@H]12,IC50,HeLa [2],5.46 µM
C=C1C(=O)O[C@@H]2CC(C)=C([C@@H](C)CCCOC(C)=O)[C@@H](OC(=O)c3ccc(F)cc3)[C@H]12,IC50,[1],13.6 µM
same,IC50,HCT-116,14.9 µM
same,IC50,HeLa [2],12 µM
C=C1C(=O)O[C@@H]2CC(C)=C([C@@H](C)CCCOC(C)=O)[C@@H](OC(=O)COc3cccc4cccnc34)[C@H]12,IC50,[1],14.3 µM
same,IC50,HCT-116,12.1 µM
same,IC50,HeLa [2],8.94 µM
C=C1C(=O)O[C@@H]2CC(C)=C([C@@H](C)CCCOC(C)=O)[C@@H](OC(=O)CCl)[C@H]12,IC50,[1],26.5 µM
same,IC50,HCT-116,18.8 µM
same,IC50,HeLa [2],28.5 µM
C=C1C(=O)O[C@@H]2CC(C)=C([C@@H](C)CCCOC(C)=O)[C@@H](OC(=O)CN3CCCCC3)[C@H]12,IC50,[1],11.5 µM
same,IC50,HCT-116,13.9 µM
same,IC50,HeLa [2],10.3 µM
C=C1C(=O)O[C@@H]2CC(C)=C([C@@H](C)CCCOC(C)=O)[C@@H](OC(=O)COc3ccc(C(C)=O)cc3)[C@H]12,IC50,[1],49.6 µM
same,IC50,HCT-116,40.1 µM
same,IC50,HeLa [2],43.9 µM
C=C1C(=O)O[C@@H]2CC(C)=C([C@@H](C)CCCOC(C)=O)[C@@H](OC(=O)COc3ccc4c(CC)noc4c3)[C@H]12,IC50,[1],21.2 µM
same,IC50,HCT-116,18.3 µM
same,IC50,HeLa [2],21.7 µM
C=C1C(=O)O[C@@H]2CC(C)=C([C@@H](C)CCCOC(C)=O)[C@@H](OC(=O)c3ccc([N+](=O)[O-])cc3)[C@H]12,IC50,HeLa [2],11.3 µM
C=C1C(=O)O[C@@H]2CC(C)=C([C@@H](C)CCCOC(C)=O)[C@@H](OC(=O)COc3ccc([N+](=O)[O-])cc3[N+](=O)[O-])[C@H]12,IC50,[1],> 100 µM
same,IC50,HCT-116,> 100 µM
same,IC50,HeLa [2],> 100 µM
C=C1C(=O)O[C@@H]2CC(C)=C([C@@H](C)CCCOC(C)=O)[C@@H](OC(C)=O)[C@H]12,Activity,HeLa [3],6.9%
same,Activity,HeLa [4],24.4%
same,Activity,HeLa [5],11%
same,IC50,[1],15.9 µM
same,IC50,HCT-116,10.1 µM
same,Activity,[6],Active
same,Activity,[7],Active
same,Activity,[8],Active
same,IC50,HeLa [2],11.2 µM
CC(=O)OCCC[C@H](C)C1=C(C)C[C@H]2OC(=O)C(CSCCO)[C@H]2[C@@H]1OC(=O)c1ccccc1 (stereo partly specified),IC50,[1],> 100 µM
same,IC50,HCT-116,> 100 µM
same,IC50,HeLa [2],> 100 µM
COc1cc([C@@H]2c3cc4c(cc3[C@@H](O[C@@H]3O[C@@H]5CO[C@@H](C)O[C@H]5[C@H](O)[C@H]3O)[C@H]3COC(=O)[C@H]23)OCO4)cc(OC)c1O [ETOPOSIDE],IC50,[1],6.56 µM
same,IC50,HCT-116,2.13 µM
same,IC50,HeLa [2],2.97 µM
same,Activity,HeLa [9],Active
C=C1C(=O)O[C@@H]2CC(C)=C([C@@H](C)CCCOC(C)=O)[C@@H](OC(=O)COc3cccc4[nH]nnc34)[C@H]12,IC50,[1],21.1 µM
same,IC50,HCT-116,23.7 µM
same,IC50,HeLa [2],23 µM
C=C1C(=O)O[C@@H]2CC(C)=C([C@@H](C)CCCOC(C)=O)[C@@H](OC(=O)CN3CCOCC3)[C@H]12,IC50,[1],14.1 µM
same,IC50,HCT-116,16.3 µM
same,IC50,HeLa [2],13.9 µM
C=C1C(=O)O[C@@H]2CC(C)=C([C@@H](C)CCCOC(C)=O)[C@@H](OC(=O)COc3ccc(C(=O)OCCC)cc3)[C@H]12,IC50,[1],27.7 µM
same,IC50,HCT-116,37.5 µM
same,IC50,HeLa [2],22.9 µM
C=C1C(=O)O[C@@H]2CC(C)=C([C@@H](C)CCCOC(C)=O)[C@@H](OC(=O)c3ccccc3F)[C@H]12,IC50,[1],19.3 µM
same,IC50,HCT-116,21.1 µM
same,IC50,HeLa [2],17 µM
C=C1C(=O)O[C@@H]2CC(C)=C([C@@H](C)CCCOC(C)=O)[C@@H](OC(=O)c3ccccc3)[C@H]12,Activity,HeLa [10],20.7%
same,Activity,HeLa [11],30%
same,Activity,HeLa [12],Dose-dependent effect
same,Activity,HeLa [13],Dose-dependent effect
same,Activity,HeLa [14],53.2%
same,Activity,HeLa [15],6.9%
same,Activity,HeLa [16],0.3%
same,Activity,HeLa [17],63.7%
same,Activity,HeLa [18],18.1%
same,Activity,HeLa [19],inactive
same,Activity,HeLa [20],28.7%
same,IC50,[1],9.93 µM
same,IC50,HCT-116,10.5 µM
same,Activity,HeLa [21],4.5%
same,Activity,[6],Active
same,Activity,[7],Active
same,Activity,HeLa [22],3.5%
same,Activity,HeLa [23],41.3%
same,Activity,[8],Active
same,Activity,HeLa [24],29.5%
same,Activity,HeLa [25],15.6%
same,IC50,HeLa [2],5.19 µM
same,Activity,HeLa [26],3.9%
same,Activity,HeLa [27],29.2%
C=C1C(=O)O[C@@H]2CC(C)=C([C@@H](C)CCCOC(C)=O)[C@@H](O)[C@H]12,IC50,[1],47.8 µM
same,IC50,HCT-116,36.1 µM
same,IC50,HeLa [2],32.6 µM
O=c1[nH]cc(F)c(=O)[nH]1 [FLUOROURACIL],IC50,[1],0.86 µM
same,IC50,HCT-116,4.9 µM
same,IC50,HeLa [2],4.71 µM
C=C1C(=O)O[C@@H]2CC(C)=C([C@@H](C)CCCOC(C)=O)[C@@H](OC(=O)CN(CC)CC)[C@H]12,IC50,[1],11.6 µM
same,IC50,HCT-116,13.1 µM
same,IC50,HeLa [2],10.7 µM
C=C1C(=O)O[C@@H]2CC(C)=C([C@@H](C)CCCOC(C)=O)[C@@H](OC(=O)c3ccc(OC)cc3)[C@H]12,IC50,HeLa [2],8.85 µM
C=C1C(=O)O[C@@H]2CC(C)=C([C@@H](C)CCCOC(C)=O)[C@@H](OC(=O)c3cccc(F)c3)[C@H]12,IC50,[1],12.9 µM
same,IC50,HCT-116,14.5 µM
same,IC50,HeLa [2],11.8 µM
C=C1C(=O)O[C@@H]2CC(C)=C([C@@H](C)CCCOC(C)=O)[C@@H](OC(=O)c3cc(OC)c(OC)c(OC)c3)[C@H]12,IC50,HeLa [2],6.54 µM
CC(=O)OCCC[C@H](C)C1=C(C)C[C@H]2OC(=O)C(CSCCO)[C@H]2[C@@H]1OC(C)=O (stereo partly specified),IC50,[1],> 100 µM
same,IC50,HCT-116,> 100 µM
same,IC50,HeLa [2],> 100 µM
